Measured values: patent EP3158990A1 (Glano Tech Ltd, priority 2015, dated 2017)
Values belong to the molecule of their own block, whether it stands above or below them.

Columns and labels:
[1] = test system: smooth muscle of the corpora cavernosa of rats; assay: Relaxation/contraction of rat corpus cavernosum tissue samples (force displacement transducer); format: cell-based, Wistar-type rats; settings: for relaxation of the tissue of the corpora cavernosa: tissue constricted with norepinephrine, scalar solutions 10^-5 M to 10^-3 M
Source text: In particular, this model is used for planning experiments aimed at checking the vasodilatory action of NO on vascular smooth muscle cells, since the methodology presented by the authors allows samples of corpus cavernosum tissue to be obtained from rats, on which studies of response to various exogenous molecules can be conducted, to detect their relaxation/contraction effects on smooth muscle cells.
The work we selected and the experimental model on which we based our observations can easily be traced in the following work: G. Italiano, A. Calabrò and F. Pagano of the Urology Institute of Padua University, published in Pharmacology Therapeutics (Vol 30 no 4, 1994 pp. 325-334).
We used 20 adult Wistar-type rats weighing between 175 and 200 g; after having sacrificed the rats we obtained corpus cavernosum tissues as described by the methods and placed these in a Krebs solution (in mM: 118 NaCl, 4,7 KCI, 1,2 KH2PO4, 1,2 MgSO4, 1,5 CaCl2, 25 NaHCO3, 11 glucose).
A single sample was taken from each rat.
The excised tissues were then put in 10 mL Krebs solution and held in place by two metal arms to allow assessment of any changes in the forces observed and assessed by the Grass FT03 model (using a force displacement transducer apparatus to assess the muscle tension of tissues, calibrated in mN). The saline solution containing the tissues (Krebs solution) was kept at pH 7.4 ±0.1 and at 37°C, with oxygenation using a mixture of 95% oxygen and 5% carbon dioxide.

[2] = Analysis of the mixed solution (infrared nitrite peak, visible UV spectrum); format: physicochemical
[3] = test system: rat model with type 1 diabetes induced by streptozotocin; assay: In-vivo test of sexual function in diabetic rat models; parameters: species or system male Wistar rats
Experimental: Next we tested the possible beneficial effects of SNO-pantetheine on sexual function in a rat model with type 1 diabetes induced by streptozotocin, which is typically accompanied by deficit of sexual activity.
In short, male Wistar rats were assigned to a cage (45 × 50 × 35 cm) covered in glass and lit with red light. Training took place every day after 5 pm for about 30 min, and after 10 minutes of acclimatisation a female rat in an oestrogenic phase was introduced into the cage. We then observed the sexual behaviour of diabetic rats vs. the relevant controls by measuring standard parameters (Burnett et al., 1995).

Molecule: S-nitrosothiol of alpha lipoic acid
- relaxation of the tissue of the corpora cavernosa [1]: very similar to that of the S-nitrosothiol of pantetheine

Molecule: NC[C@H](O)c1ccc(O)c(O)c1 [norepinephrine, reference compound]
- constriction ([1]; scalar solutions 10^-8 M to 10^-3 M, Krebs solution pH 7.4, 37°C): about 1.5 mN

- results of the reaction compared with pantetheine (nitrite consumption, S-nitroso compound formation) ([2]; alpha lipoic acid used as SH group donor instead of pantetheine): comparable results
Molecule: O=C(O)CCCCC1CCSS1 (stereo not drawn) [alpha lipoic acid]

- nitrosothiol remains sufficiently stable ([2]; at room temperature, after mixing of phases A and B): more than 1 hour
Molecule: CC(C)(CO)[C@@H](O)C(=O)NCCC(=O)NCCSN=O [SNO-pantetheine, S-nitrosothiol of pantetheine]
- relaxation of the tissue of the corpora cavernosa [1]: the effect of the norepinephrine was cancelled out
- EL (Ejaculation latency) ([3]; Day 0, topical application): 423.2 ± 12.5 s
- IF (Introduction frequency) ([3]; Day 0, topical application): 11.2 ± 0.9 number
- IL (Introduction latency) ([3]; Day 0, topical application): 52.3 ± 3.9 s
- MF (Mating frequency) ([3]; Day 0, topical application): 12.0 ± 1.7 number
- ML (Mating latency) ([3]; Day 0, topical application): 42.5 ± 2.9 s
- PEI (Post-ejaculatory interval) ([3]; Day 0, topical application): 343.3 ± 10.9 s
- EL (Ejaculation latency) ([3]; Day 30, topical application): 375.8 ± 10.8 s
- IF (Introduction frequency) ([3]; Day 30, topical application): 14.5 ± 0.8 number
- IL (Introduction latency) ([3]; Day 30, topical application): 44.7 ± 4.2 s
- MF (Mating frequency) ([3]; Day 30, topical application): 11.2 ± 0.3 number
- ML (Mating latency) ([3]; Day 30, topical application): 34.3 ± 2.5 s
- PEI (Post-ejaculatory interval) ([3]; Day 30, topical application): 386.2 ± 14.3 s
